From patent US9388163B2, “Multifunctional radical quenchers for the treatment of mitochondrial dysfunction” (Arizona Board of Regents, a Body Corporate of the State of …, priority 2011, dated 2016)

Legend:
FRDA cell line = assay: Trypan blue exclusion cell viability assay, DEM-stressed cells; format: cell-based; conditions: FRDA cells stressed with DEM
Method: (§1) Friedreich's Ataxia lymphocytes and control cells (Coriell, catalogue number GM158150, and GM158151, respectively) were cultured in RPMI (GIBCO, Grand island, NY, USA) with 15% FBS (Fisher Scientific, TX, USA), 2 mM glutamine (HyClone, South Logan, Utah, USA) and 1% penicillin-streptomycin mix antibiotics (Cellgro, Manassas, Va., USA) supplements. Cells were maintained in the log phase at a concentration of between 1×10^5 and 1×10^6 cells/mL.
V. Trypan Blue Cell Viability Assay
Cell viability determined by trypan blue exclusion assay: This technique was used to assess the cytoprotective effects of the invention compounds in cultured cells pharmacologically treated to induce cell death by GSH depletion. DEM was used to deplete cellular GSH and induce oxidative stress. The viability of DEM-treated cells was determined by their ability to exclude the dye trypan blue. Viable cells exclude trypan blue; whereas, non-viable cells take up the dye and stain blue. Briefly, cells were seeded at a density of 1×10^6 cells/mL and treated with different concentrations of the invention compounds. Cells were incubated at 37° C. in a humidified atmosphere of 5% CO2 in air for three hours with 5 mM DEM. Cell viability was determined by staining cells with 0.4% trypan blue using a hemocytometer. At least 500 cells were counted for each experimental group. At the time of assay, >95% of DEM-treated cells were trypan blue positive; whereas, in non-DEM treated control cell cultures >95% cells were viable. Cell viability was expressed as the percentage of control. Data are expressed as means±S.E.M (n=3).

leukemia CEM lymphocytes = assay: Suppression of lipid peroxidation (C11-BODIPY 581/591, FACS) in DEM-treated cells; format: cell-based; conditions: CEM cells treated with DEM, untreated control 100, treated control 0
Method: as §1, with “Leukemic CEM” for “Friedreich's Ataxia lymphocytes and control”, “(ATCC®,” for “(Coriell,”, “CRL-2264)” for “GM158150, and GM158151, respectively)”, “10%” for “15%”
Measurement of C11-BODIPY^581/591 Oxidation in Cell Culture
Lipid peroxidation in cells was detected by utilizing the oxidant-sensitive lipophilic probe C11 BODIPY^581/591. […] Cells were treated with 500 nM C11 BODIPY^581/591 in phenol red-free RPMI-1640 media and incubated at 37° C. in the dark for 30 minutes. The cells were washed twice with phosphate buffered saline and oxidative stress was induced with 5 mM DEM in phenol red-free RPMI-1640 media for 90 minutes. Treated cells were collected by centrifugation at 300×g for 3 minutes and then washed twice with phosphate buffered saline. Cells were re-suspended in 250 μL of phosphate buffered saline and were analyzed by FACS (FACS Calibur flow cytometer, Becton Dickinson) to monitor the change in intensity of the C11 BODIPY^581/591 green (oxidized) fluorescence signal.

Row | Structure (SMILES) | viability at 0.1 µM (FRDA cell line) [%] | viability at 0.5 µM (FRDA cell line) [%] | viability at 2.5 µM (FRDA cell line) [%] | Scavenging activity (%) (lipid peroxidation) (leukemia CEM lymphocytes; 1 μM) | Scavenging activity (%) (lipid peroxidation) (leukemia CEM lymphocytes; 5 μM)
1 | CCCCCCCc1c(C)n(O)c(C)cc1=O [CPD-6, 3-heptyl-1-hydroxy-2,6-dimethylpyridin-4(1H)-one] | 27 ± 7 | 30 ± 13 | 24 ± 6 | 0 | 0
2 | CCCCCCCCCCc1c(C)n(O)c(C)cc1=O [CPD-7, 3-decyl-1-hydroxy-2,6-dimethylpyridin-4(1H)-one] | 36 ± 6 | 14 ± 5 | 20 ± 3 | 0 | 0
3 | CCCCCCCCCCCCCCCCc1c(C)n(O)c(C)cc1=O [CPD-8, 3-hexadecyl-1-hydroxy-2,6-dimethylpyridin-4(1H)-one] | 19 ± 6 | 15 ± 5 | 18 ± 2 | 10 ± 4.3 | 20 ± 3.4
4 | CCCCCCCc1c(C)n(O)c(C)c(Br)c1=O [CPD-9, 3-bromo-5-heptyl-1-hydroxy-2,6-dimethylpyridin-4(1H)-one] | 31 ± 12 | 28 ± 7 | 32 ± 5 | 0 | 0
5 | CCCCCCCCCCc1c(C)n(O)c(C)c(Br)c1=O [CPD-10, 3-bromo-5-decyl-1-hydroxy-2,6-dimethylpyridin-4(1H)-one] | 19 ± 6 | 20 ± 13 | 32 ± 8 | 0 | 0
6 | CCCCCCCCCCCCCCCCc1c(C)n(O)c(C)c(Br)c1=O [CPD-11, 3-bromo-5-hexadecyl-1-hydroxy-2,6-dimethylpyridin-4(1H)-one] | 12 ± 5 | 6 ± 3 | 8 ± 3 | 7 ± 2.3 | 15 ± 3.3
7 | CCCCCCCc1c(C)n(O)c(C)c(Cl)c1=O [CPD-12, 3-chloro-5-heptyl-1-hydroxy-2,6-dimethylpyridin-4(1H)-one] | 15 ± 6 | 29 ± 3 | 39 ± 3 | 0 | 0
8 | CCCCCCCCCCc1c(C)n(O)c(C)c(Cl)c1=O [CPD-13, 3-chloro-5-decyl-1-hydroxy-2,6-dimethylpyridin-4(1H)-one] | 17 ± 3 | 14 ± 2 | 19 ± 5 | 0 | 0
